Test results taken from patent US8785483B2, “Methods for treating COPD” (The Board of Regents of the University of Texas System, priority 2010, dated 2014).

Tests used:
[1] = tested on: Muc5AC; experiment: Western blot of Muc5AC in IL-13-treated SAEC monolayer; assay type: cell-based, human; conditions: IL-13 48 h, immunoblotting
Description: FIGS. 6A-6B. AR inhibition prevents IL-13-induced expression of Mucin and transcription factor SPDEF in airway epithelial cell monolayer. (A) The airway epithelial cell monolayer at ALI was serum starved without or with fidarestat and incubated with IL-13 for 18 h. Total RNA was isolated and subsequently RT-PCR was performed to assess the expression of Muc5AC and SPDEF. The bar diagrams show densitometric analysis of the corresponding blots (n=4). *p<0.001 vs Control; **p<0.001 vs IL-13; (B) The monolayer of ciliated airway cells at ALI was treated with AR inhibitor for 24 h and subsequently incubated with IL-13 for 24 or 48 h. At the end of incubation, cell lysate was prepared and subjected to western blotting using antibodies against Muc5AC, Muc5B, and SPDEF. The membranes were stripped and re-probed with antibodies against GAPDH to show the equal loading of protein. A representative blot is shown (n=4). *p<0.0001 vs Control; **p<0.001 vs IL-13. […] Protein levels were determined using Bradford reagent (Biorad, Hercules, Calif.). […] The blots were then washed, exposed to HRP-conjugated secondary antibodies (1:5,000 dilution) for 1 h, and the antigen-antibody complex was detected by enhanced chemiluminescence (Amersham Pharmacia Biotech, Piscataway, N.J., USA). […]

[2] = tested on: Muc5AC; experiment: RT-PCR of Muc5AC in IL-13-treated SAEC monolayer; assay type: cell-based, human; conditions: SAEC monolayer at ALI, IL-13 18 h
Description: FIGS. 6A-6B. AR inhibition prevents IL-13-induced expression of Mucin and transcription factor SPDEF in airway epithelial cell monolayer. (A) The airway epithelial cell monolayer at ALI was serum starved without or with fidarestat and incubated with IL-13 for 18 h. Total RNA was isolated and subsequently RT-PCR was performed to assess the expression of Muc5AC and SPDEF. The bar diagrams show densitometric analysis of the corresponding blots (n=4). *p<0.001 vs Control; **p<0.001 vs IL-13; (B) The monolayer of ciliated airway cells at ALI was treated with AR inhibitor for 24 h and subsequently incubated with IL-13 for 24 or 48 h. At the end of incubation, cell lysate was prepared and subjected to western blotting using antibodies against Muc5AC, Muc5B, and SPDEF. The membranes were stripped and re-probed with antibodies against GAPDH to show the equal loading of protein. A representative blot is shown (n=4). *p<0.0001 vs Control; **p<0.001 vs IL-13.
For air-liquid interface (ALI) culture, SAEC were seeded at 8.5×10^4 cells/12-mm-diameter PET transparent insert with […] pores (12-well millicell culture insert; Millipore) and pre-coated with rat tail collagen type-1 (Sigma-Aldrich). The cells were grown submerged in the differentiation medium as described earlier by Zhen et al. (Am J Respir Cell Mol Biol 36: 244-253, 2007). […]

Compound: NC(=O)[C@@H]1C[C@]2(NC(=O)NC2=O)c2cc(F)ccc2O1 [fidarestat, (2S,4S)-2-aminoformyl-6-fluoro-spiro[chroman-4,4′-imidazolidine]-2′,5′-dione]
- prevention of IL-13-induced increase in Muc5AC protein [1]: ~75%
- IL-13-induced Muc5AC-specific RNA expression [2]: significantly prevented the increase
